Key:
[1] = tested on: human primary macrophages; experiment: Cell viability assessment (CellTiter-Glo) in the macrophage assay plates; assay type: cell-based; set-up: concentration or dose not given beside the values; conditions: CellTiter-Glo luminescent assay
Procedure: 2×10^5 PBMCs at a total volume of 200 μL/well were plated into a 96-well plate and incubated for 4 hrs at 37° C. in a CO2 incubator to allow the monocytes to settle, leaving the lymphocytes in suspension. Following incubation, 100 μL were aspirated out of each well to ensure removal of the lymphocyte population. The monocytes were differentiated to macrophages by addition of 200 ng/mL of recombinant human GM-CSF (4 mg/mL stock) and incubated at 37° C./5% CO2 for 6 days. The medium was changed every two days by removing half the volume of medium in the well and re-supplementing with fresh RPMI complete medium and recombinant human GM-CSF. Following differentiation, the cells were treated in duplicates with a compound according to the invention in a total volume of 50 μL, maintaining a final DMSO percentile of 0.5%. The plate was transferred to an incubator maintained at 37° C./5% CO2 for 2 hours. The cells were stimulated with 100 ng/mL of LPS (4×) (1 mg/mL stock) in a total volume of 50 μL. The plate was transferred to an incubator maintained at 37° C./5% CO2 for 16 hours. 100 μl/well volume of CellTiter-Glo® luminescent reagent was added to the assay plates and incubated at room temperature for 30 mins on a plate shaker. Following incubation, the luminescent signal of each well was determined using a microplate reader (Perkin Elmer ENVISION 2104). Cytotoxicity of the test compounds was determined utilizing the following formula: % Cytotoxicity=100−(100*(Average Test Compound Counts−Average Negative Control Counts)/(Average Positive Control Counts−Average Negative Control Counts)) All of the “Counts” stated in this formula are derived from “luminescent signal” determined as described for the cytokine viability assessment.

Bleomycin-induced IPF = experiment: Treatment of bleomycin-induced IPF in mice; assay type: in vivo
Excerpt: Example 16: Effect of Compound 7 in the Treatment of Bleomycin-Induced IPF Timed pregnant mice (n=30) were selected for the study. The delivered pups were subcutaneously injected on the post-natal day 2 (PND-2) with 1.5 U/kg of Bleomycin (intra-tracheal) and were allowed to remain with the mother until they reached the weanling age. After weanling, the male pups were selected and fed with 60% kcal fat diet (Research Diet-D12492) for the next week. All the animals were observed twice daily for clinical signs. Mice were orally dosed with vehicle, test compounds and reference compound (Pirfenidone) twice daily morning (9.00 AM) and evening before the start of dark cycle (6:00 PM) from day 0 to 14. Animal body weight measurements were made daily for the complete duration of the experiment. Animals were dosed for 14 days with the test and reference compounds. Lung hydroxyproline level was estimated before the treatment start and on the termination day 14. Total cell count and differential leukocyte count in BALF were measured before the treatment start and on […]. Histopathology analysis in the form of H&E Ashcroft score was performed for the lung tissues. All the H&E stained tissue sections were examined by light microscopy. As per the below grading system (Kleiner et al., 2005) in 200× objective lens, IPF scoring was carried out. Collagen Proportion Area (% CPA) Measurement: Masson's Trichrome Staining All the Masson's trichrome stained tissue sections were examined by light microscopy in 100× objective lens. Randomly selected five fields (approx 684.85 μm×917.11m per field) from each lung were subjected to collagen proportion area measurement by using Image Pro Premier 9.1 software. The percentage of collagen proportion area was calculated by dividing collagen tissue area by total tissue area.

## CCOc1ccc(Oc2cc(S(=O)(=O)N(C)C)cnc2N2CCC(Oc3ccc(Cl)cc3)CC2)cc1 [Compound 7]
[1]
  Cell viability: 100%
Bleomycin-induced IPF; 15 mg/kg dose, oral twice daily, 14 days, vs Bleomycin control, FIG. 4
  lung hydroxyproline levels: significantly reduced
Bleomycin-induced IPF; Compound 7 15 mg/kg vs 100 mg/kg Pirfenidone
  reduction of lung hydroxyproline levels compared with Pirfenidone: higher than for 100 mg/kg Pirfenidone
Bleomycin-induced IPF; compared with Bleomycin control, Compound 7 p>0.05, Pirfenidone p<0.05, FIGS. 5A and 5B
  BALF macrophage counts: reduced
Bleomycin-induced IPF; lung, Masson's trichrome, in comparison with Bleomycin control, p<0.05, FIG. 6B
  % CPA (Collagen Proportion Area): significant reduction
Bleomycin-induced IPF; lung, in comparison with Bleomycin control, p<0.05, FIG. 6A
  fibrosis score (H&E Ashcroft Score): significant reduction
